Consider twelve compounds from PubChem BioAssay (NCI).

Test systems include OVCAR-4 ovarian; 786-0 renal; OVCAR-5 ovarian; SK-MEL-2 melanoma; DU-145 prostate; HT29 colon; RXF 393 renal.
Experiment in all cases: NCI anticancer screen, dose series, 48 h

The structures appear in SMILES notation. Where “and” joins values, the source holds several entries; their conditions need not be identical. Identical values can stand only once.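 Each compound was tested at five concentrations against cells in 96-well plates for 48 hours. At the GI50, growth is halved. TGI is the concentration that stops growth completely.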

As for `CN1C(=O)c2ccccc2NC(=O)C12O[C@@H]2c1cccc(O)c1` (stereo not given in full), the TGI in the assay on OVCAR-4 ovarian, in the assay with 786-0 renal, with OVCAR-5 ovarian, with SK-MEL-2 melanoma, in the assay on DU-145 prostate and in the assay on HT29 colon was above 100 µM each time.

In the case of `C=C[C@H]1C[C@@H]2C[C@@H]3[C@H]4C/C=C\C(=O)NCCCC5NC(=O)C(=C(O)/C=C/[C@@H]4CC(=O)[C@H]3[C@@H]2[C@H]1C)C5=O` (stereo not given in full), the GI50 with RXF 393 renal is 0.165 µM; in the assay on OVCAR-4 ovarian, 0.21 µM; in the assay on 786-0 renal, 0.173 µM; in the assay with OVCAR-5 ovarian, 0.436 µM; in the assay on SK-MEL-2 melanoma, 1.08 µM; in the assay with DU-145 prostate, 0.191 µM. The GI50 in the assay with HT29 colon is 1.88 µM. In addition, the TGI came out at 0.308 µM with RXF 393 renal; 0.413 µM with OVCAR-4 ovarian; 0.329 µM with 786-0 renal; 1.72 µM in the assay with OVCAR-5 ovarian; 2.58 µM with SK-MEL-2 melanoma; 0.345 µM in the assay with DU-145 prostate. This compound had a TGI in the assay on HT29 colon of 3.58 µM.

In the case of `O=C1OC(c2ccco2)=N/C1=C\c1cccc([N+](=O)[O-])c1`, the TGI in the assay on OVCAR-4 ovarian, in the assay on 786-0 renal, in the assay with OVCAR-5 ovarian, in the assay with SK-MEL-2 melanoma, with DU-145 prostate and in the assay on HT29 colon was above 100 µM in each case.

`Cn1c2ccccc2c2c3[nH]c(=O)[nH]c(=O)c3c3c4ccccc4n(C)c3c21`: the GI50 is 1.74 µM with RXF 393 renal; 1.88 µM in the assay on 786-0 renal; 3 µM with OVCAR-5 ovarian; 4.5 µM in the assay with SK-MEL-2 melanoma; 1.51 µM in the assay on DU-145 prostate. For the same compound, the TGI was 5.25 µM in the assay on RXF 393 renal; 4.34 µM in the assay on 786-0 renal; above 100 µM with OVCAR-5 ovarian; 19.7 µM in the assay with SK-MEL-2 melanoma; above 100 µM in the assay on DU-145 prostate.

On to `CC(C)(C)c1cc(NC(=O)Cc2ccc(-c3cnc4cc(-c5cnn(CCN6CCOCC6)c5)ccc4n3)cc2)no1`, for which the GI50 was 0.179 µM and 0.274 µM and 0.0395 µM in the assay on RXF 393 renal; 0.158 µM and 0.363 µM and 0.0439 µM in the assay with OVCAR-4 ovarian; 0.297 µM and 0.764 µM and 0.092 µM with 786-0 renal; 0.347 µM and 0.42 µM and 0.0569 µM with SK-MEL-2 melanoma; 0.432 µM and 0.494 µM and 0.0757 µM with DU-145 prostate; 0.613 µM and 1.06 µM and 0.116 µM in the assay with HT29 colon. Further, the TGI in the assay on RXF 393 renal was 1.93 µM and 1.45 µM; in the assay on OVCAR-4 ovarian, 50 µM and 14.4 µM and > 1.16 µM; in the assay on 786-0 renal, 50 µM and > 100 µM and > 3 µM; in the assay with OVCAR-5 ovarian, 50 µM and > 100 µM and > 3 µM; in the assay on SK-MEL-2 melanoma, 50 µM and > 100 µM and > 2.53 µM; in the assay with DU-145 prostate it was 50 µM and > 100 µM and > 3 µM. For the same compound, in the assay on HT29 colon, the TGI was 50 µM and > 100 µM and > 3 µM.

For `Cc1nc(-c2ccccc2)c(-c2ccccc2)s1`, the TGI with RXF 393 renal was 49.8 µM; with OVCAR-4 ovarian, above 100 µM; in the assay with 786-0 renal, 50.8 µM; with OVCAR-5 ovarian it was above 100 µM; in the assay with SK-MEL-2 melanoma, 32.8 µM; in the assay on DU-145 prostate, above 100 µM. The compound also came in with a TGI with HT29 colon of 41.7 µM.

For `O=C(O)[C@@H]1CCCCN1Cc1cc2cc3c(cc2c2cc(OCc4ccccc4)ccc12)OCO3`, the GI50 in the assay on RXF 393 renal was 6.05 µM; in the assay on 786-0 renal, 18.9 µM; in the assay with OVCAR-5 ovarian, 19.2 µM; in the assay on SK-MEL-2 melanoma it was 15.6 µM; with DU-145 prostate it was 5.19 µM; in the assay with HT29 colon, 3.24 µM. The TGI with RXF 393 renal was 22.6 µM; with 786-0 renal, 44.9 µM; in the assay on OVCAR-5 ovarian it was 44 µM; with SK-MEL-2 melanoma, 37.4 µM; with DU-145 prostate, above 100 µM; with HT29 colon, 15.8 µM.

As to `Cc1ccc2[nH]c(C(=O)NN3C(=O)C(C)SC34CCCC(C)C4)c(-c3ccccc3)c2c1` (stereo not given), the GI50 was 17.1 µM in the assay on RXF 393 renal; 50 µM in the assay on OVCAR-4 ovarian; 58.3 µM in the assay with 786-0 renal; above 100 µM in the assay on OVCAR-5 ovarian; above 100 µM in the assay with SK-MEL-2 melanoma; above 100 µM in the assay on DU-145 prostate. Further, the GI50 in the assay with HT29 colon was 33.9 µM. Besides, the TGI was 84.7 µM in the assay on RXF 393 renal; above 100 µM in the assay on OVCAR-4 ovarian; above 100 µM in the assay with 786-0 renal; above 100 µM with OVCAR-5 ovarian; above 100 µM in the assay with SK-MEL-2 melanoma; above 100 µM in the assay with DU-145 prostate. The compound also displayed a TGI with HT29 colon above 100 µM.

On to `Nc1nc(-c2cccc(Cl)c2)c(-c2ccc3ncccc3n2)s1`, for which the GI50 with RXF 393 renal, in the assay on OVCAR-4 ovarian, with 786-0 renal, in the assay on OVCAR-5 ovarian, in the assay on SK-MEL-2 melanoma and with DU-145 prostate was above 25 µM each time. Besides, the GI50 with HT29 colon was above 25 µM. Also, the TGI with RXF 393 renal, with OVCAR-4 ovarian, in the assay with 786-0 renal, with OVCAR-5 ovarian, with SK-MEL-2 melanoma and in the assay with DU-145 prostate was above 25 µM in each case. Further, the TGI in the assay on HT29 colon was above 25 µM.

In the case of `O=C1/C(=C/c2ccc(O)cc2)CSc2ccc(Cl)cc21`, the GI50 in the assay with RXF 393 renal is 17.9 µM; with OVCAR-4 ovarian, 21.7 µM; in the assay with 786-0 renal, 17.2 µM; with OVCAR-5 ovarian, 19.8 µM; in the assay on SK-MEL-2 melanoma, 19.1 µM; in the assay with DU-145 prostate, 12.4 µM. For the same compound, the GI50 with HT29 colon is 16.5 µM. Besides, the TGI is 37.7 µM in the assay on RXF 393 renal; above 100 µM in the assay with OVCAR-4 ovarian; 49.8 µM with 786-0 renal; 40.4 µM in the assay on OVCAR-5 ovarian; 51.8 µM in the assay on SK-MEL-2 melanoma; 27.2 µM with DU-145 prostate. Besides, the TGI with HT29 colon turned out to be 89.7 µM.

`CNc1nc(N)c(N=O)c(Nc2ccc(Br)cc2)n1`: the TGI in the assay with RXF 393 renal, with 786-0 renal, in the assay with OVCAR-5 ovarian, in the assay on SK-MEL-2 melanoma, with DU-145 prostate and in the assay on HT29 colon was above 100 µM throughout.

For the compound `COc1ccc(C2SCC(=O)N2NC(=O)Nc2c(C)nc3ccccn23)cc1` (stereo not given), the GI50 in the assay on RXF 393 renal is 26.4 µM; in the assay with OVCAR-4 ovarian, above 100 µM; in the assay on 786-0 renal it was 21.8 µM; in the assay with OVCAR-5 ovarian, 28.9 µM; in the assay on SK-MEL-2 melanoma, 41.8 µM; with DU-145 prostate it was 44.9 µM. Further, the GI50 with HT29 colon is above 100 µM. In addition, the TGI in the assay with RXF 393 renal was 69.3 µM; with OVCAR-4 ovarian it was above 100 µM; in the assay on 786-0 renal, 61.6 µM; with OVCAR-5 ovarian, above 100 µM; with SK-MEL-2 melanoma, above 100 µM; in the assay on DU-145 prostate, above 100 µM. The compound further registered a TGI with HT29 colon above 100 µM.
